Values joined by “and” are separate entries in the source; they are usually repeats but may differ in a detail not shown here. Identical values can stand only once. Like-named read-outs stand apart in the source and are kept apart here.
How the values were obtained:
[1] = Intrinsic clearance, substrate depletion approach; assay type: in vitro ADME, human; settings: human, human liver microsomes, pH 7.4; HLM, 1 µmol/L substrate
Method: (§1) The generic conditions were previously described by Masimirembwa and co‐workers. ^24 , ^25 Each reaction mixture consisted of substrate incubated with appropriate enzyme, substrate, and NADPH in potassium phosphate buffer pH 7.4 in a final volume of 200 µL. The substrate was diluted to 40% ACN so that the percent organic component in the final solution was maintained at 1%. The reactions were quenched with 3 volumes of stop solution containing ACN and 0.8% formic acid at 0, 5, 10, 20, 30, 40, and 60 minutes. This was followed by centrifugation at 4500 g for 20 minutes. An aliquot (50 µL) supernatant was collected and diluted (1:1) in water prior to LC‐MS/MS analysis.
(§2) Each reaction was monitored over 7 time points.
(§3) The well‐stirred model was used to estimate the hepatic clearance (CLH) due to metabolism.

[2] = system: HLM; test: Intrinsic clearance, substrate depletion approach; assay type: in vitro ADME, human; settings: HLM, substrate depletion
Method: as §1, §2, §3

[3] = PZQ-ketoconazole DDI pharmacokinetic study in healthy volunteers; assay type: in vivo, human; settings: for AUC(0-inf) / AUC / CL/F / k el / half-life / Tmax / Vd/F: male, human, plasma
Method: Plasma samples were obtained from the AiBST biobank. […] Each participant served as their own control. Each participant provided written informed consent to take part in the study and the study was carried out according to Helsinki Declaration of 1975, as revised in 2008. The study was approved by the Medical Research Council of Zimbabwe (MRCZ) and the Medicines Controls Authority of Zimbabwe (MCAZ). […] The samples were vortexed for 30 seconds and left under gentle agitation for 25 minutes. […] From the supernatant, 20 μL was injected onto the chiral HPLC system for analysis. […] Detection was done using a UV diode array detector at 210 nm. […] The data were gathered and processed using Agilent OpenLab CDS for Chemstation software version 1.9. Linear calibration curves were plotted as concentration vs peak area ratio for analyte to IS with no weighting. […] The pharmacokinetic (PK) analysis was performed using the WinNonlin program, version 8.2 (Pharsight Corp). […] A non-compartmental approach was used for curve plotting and parameter calculation. The area under the curve (AUC) from time 0 to the last sampling time point (AUCt) was computed using the log-linear trapezoidal rule. The linear trapezoidal rule was used for the ascending part of the PK curve, while the log trapezoidal rule was used for the descending part of the graph. The AUC extrapolated to infinite time was calculated as AUC∞ = AUCt + Ct/K el where Ct is the concentration of the last sample taken and K el is the terminal elimination rate constant. The terminal elimination rate constant K el was determined by least squares regression analysis in the terminal phase of the semi log concentration-time curve. […] Statistical analysis was performed using the GraFit software (version 3.0, Erithacus Software Limited). […] Analysis of variance (ANOVA) was performed on the AUC and C max after transformation of the data to their natural logarithmic (ln) values.

[4] = molecular target: T1, CYP2C19 (Homo sapiens, UniProt P33261); test: Enzyme kinetics of hydroxylated metabolites formation; assay type: in vitro ADME; parameters: purchased CYPEX CYP008; host or cells: Escherichia coli; settings: CYP2C19, formation of cis‐4‐OH‐PZQ
T1 sequence (P33261 whole entry): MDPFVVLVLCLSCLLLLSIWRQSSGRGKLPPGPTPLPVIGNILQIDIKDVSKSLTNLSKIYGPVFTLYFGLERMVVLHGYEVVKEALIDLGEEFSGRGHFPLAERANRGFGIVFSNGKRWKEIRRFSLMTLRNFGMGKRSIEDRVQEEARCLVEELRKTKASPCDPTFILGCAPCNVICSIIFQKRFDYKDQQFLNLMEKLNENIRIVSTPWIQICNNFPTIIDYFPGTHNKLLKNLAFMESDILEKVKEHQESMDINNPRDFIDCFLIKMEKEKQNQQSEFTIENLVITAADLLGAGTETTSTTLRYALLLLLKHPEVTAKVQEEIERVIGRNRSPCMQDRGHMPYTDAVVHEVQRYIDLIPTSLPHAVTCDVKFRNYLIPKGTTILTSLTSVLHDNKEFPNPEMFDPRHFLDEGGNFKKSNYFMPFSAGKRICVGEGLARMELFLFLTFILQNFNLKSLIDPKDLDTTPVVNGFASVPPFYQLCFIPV
Method: The reactions were carried out in duplicate at each time point. Incubation conditions used for the determination of K M and V max were optimized for linearity with respect to time and protein concentrations. […] Metabolites were analyzed by LC‐MS/MS as described below. The K M and V max values of each marker substrate were determined using nonlinear least squares regression analysis in GraFit software (version 3.0, Erithacus Software Limited) and SigmaPlot Enzyme Kinetics Module for Windows 7.0 (SPSS, Inc).
as §3

[5] = system: CYP3A4/5; test: CYP selective diagnostic inhibition studies in HLM, ketoconazole; assay type: in vitro ADME, human; settings: ketoconazole 10 µmol/L
Method: (§4) Reactions were carried out in triplicate in 96 well plates. Each reaction was measured at 2 time points, that is at 0 and 30 minutes. […] Furafylline, KTZ, ticlopidine, and quinidine were used as diagnostic inhibitors for CYP 1A2, 3A4/5, 2C19 and 2D6, respectively. The reactions were initiated by addition of NADPH after a pre‐incubation of 5 minutes at 37°C. All reactions were terminated by the addition of 150 µL ice‐cold ACN. Internal standard (0.2 µmol/L DPZ) was added to ACN prior to termination of the assay. This was followed by centrifugation at 4500 g for 20 minutes. An aliquot (50 µL) supernatant was collected and 5 µL was injected and analyzed by liquid chromatography/tandem mass spectrometry (LC/MS/MS). The percent effect of each inhibitor was the estimated contribution of the inhibited CYP calculated using the relationship below: %contribution=amount remaining with inhibitor‐amount remaining without inhibitor/amount remaining without inhibitor×100.

[6] = molecular target: T1, CYP2C19; test: Intrinsic clearance, substrate depletion approach; settings: rCYP2C19, substrate depletion
[7] = Simcyp prediction of total hepatic clearance; parameters: species or system human
Method: The clearance of the incubation mixture was expressed as μL/min/pmol for rCYP.
as §3

[8] = system: CYP2C19; test: CYP selective diagnostic inhibition studies in HLM, ticlopidine; assay type: in vitro ADME, human; settings: ticlopidine 10 µmol/L
Method: as §4

[9] = system: CYP1A2; test: CYP selective diagnostic inhibition studies in HLM, furafylline; assay type: in vitro ADME, human; settings: furafylline 10 µmol/L
Method: as §4

[10] = PZQ + ketoconazole vs PZQ alone
[11] = PZQ + ketoconazole vs PZQ alone, listed as S‐Praziquantel
[12] = single oral 20 mg/kg PZQ alone, n = 9, listed as S‐Praziquantel, 20 mg/kg

SMILES: O=C(C1CCCCC1)N1CC(=O)N2CCc3ccccc3[C@H]2C1 [S‐PZQ, S‐Praziquantel]
- half-life at 1 µmol/L [1]: 29.5 min
- Predicted CLuH,int [2]: 97.50 mL/min/kg
- Predicted CLH ([2]; well‐stirred model): 10.78 mL/min/kg
- Clearance/F, treatment mean (SD) ([3]; 20 mg/kg PZQ plus 200 mg ketoconazole, n = 9): 211.5 (74.47) L/h
- AUCinf, difference observed % [3, 10]: 68%
- AUCt0‐tlast, difference observed % [3, 10]: 56.09%
- C max, difference observed % [3, 10]: 107.11%
- Clearance/F, difference observed % [3, 10]: −37.81%
- Half life, difference observed % [3, 10]: 31.52%
- AUCinf, difference observed % [3, 11]: 67.71%
- C max, difference observed % [3, 11]: 107.1%
- AUC(0-inf) ([3]; oral, 20 mg/kg, 20 mg/kg PZQ plus 200 mg ketoconazole, n = 9, read-out: AUCinf, treatment geo mean): 5960 ng·h/mL
- AUC(0-inf) ([3]; oral, 20 mg/kg, 20 mg/kg PZQ plus 200 mg ketoconazole, n = 9, read-out: AUCinf, treatment mean (SD)): 6460 ng·h/mL
- AUC ([3]; oral, 20 mg/kg, 20 mg/kg PZQ plus 200 mg ketoconazole, n = 9, read-out: AUCt0‐tlast, treatment geo mean): 4680 ng·h/mL
- AUC ([3]; oral, 20 mg/kg, 20 mg/kg PZQ plus 200 mg ketoconazole, n = 9, read-out: AUCt0‐tlast, treatment mean (SD)): 4910 ng·h/mL
- CL/F ([3]; oral, 20 mg/kg, 20 mg/kg PZQ plus 200 mg ketoconazole, n = 9, read-out: Clearance/F, treatment geo mean (converted)): 3340 mL/min
- CL/F ([3]; oral, 20 mg/kg, 20 mg/kg PZQ plus 200 mg ketoconazole, n = 9, read-out: Clearance/F, treatment mean (SD) (converted)): 3530 mL/min
- k el ([3]; oral, 20 mg/kg, 20 mg/kg PZQ plus 200 mg ketoconazole, n = 9, read-out: Elimination rate constant, treatment geo mean (converted)): 6.11e-05 s⁻¹
- k el ([3]; oral, 20 mg/kg, 20 mg/kg PZQ plus 200 mg ketoconazole, n = 9, read-out: Elimination rate constant, treatment mean (SD) (converted)): 6.94e-05 s⁻¹
- half-life ([3]; oral, 20 mg/kg, 20 mg/kg PZQ plus 200 mg ketoconazole, n = 9, read-out: Half life, treatment geo mean (converted)): 190 min
- half-life ([3]; oral, 20 mg/kg, 20 mg/kg PZQ plus 200 mg ketoconazole, n = 9, read-out: Half life, treatment mean (SD) (converted)): 218 min
- Tmax ([3]; oral, 20 mg/kg, 20 mg/kg PZQ plus 200 mg ketoconazole, n = 9, read-out: T max, treatment geo mean): 2.35 h
- Tmax ([3]; oral, 20 mg/kg, 20 mg/kg PZQ plus 200 mg ketoconazole, n = 9, read-out: T max, treatment mean (SD)): 2.44 h
- Vd/F ([3]; oral, 20 mg/kg, 20 mg/kg PZQ plus 200 mg ketoconazole, n = 9, read-out: V d/F, treatment geo mean): 915 L
- Vd/F ([3]; oral, 20 mg/kg, 20 mg/kg PZQ plus 200 mg ketoconazole, n = 9, read-out: V d/F, treatment mean (SD)): 967 L
- AUC ([3]; oral, 20 mg/kg, AUC, PZQ alone): 3850 ± 1430 ng·h/mL
- AUC ([3]; oral, 20 mg/kg, read-out: AUC from the in vivo pharmacokinetic study): 3300 ng·h/mL
- AUC ([3]; oral, AUC, PZQ + KTZ): 6460 ± 3100 ng·h/mL
- AUC(0-inf) ([3]; po, 20 mg/kg, single oral 20 mg/kg PZQ alone, n = 9, read-out: AUCinf, reference geo mean): 3610 ng·h/mL
- AUC(0-inf) ([3]; po, 20 mg/kg, single oral 20 mg/kg PZQ alone, n = 9, read-out: AUCinf, reference mean (SD)): 3850 ng·h/mL
- AUC ([3]; po, 20 mg/kg, single oral 20 mg/kg PZQ alone, n = 9, read-out: AUCt0‐tlast, reference geo mean): 2970 ng·h/mL
- AUC ([3]; po, 20 mg/kg, single oral 20 mg/kg PZQ alone, n = 9, read-out: AUCt0‐tlast, reference mean (SD)): 3150 ng·h/mL
- CL/F ([3]; po, 20 mg/kg, single oral 20 mg/kg PZQ alone, n = 9, read-out: Clearance/F, reference geo mean (converted)): 5480 mL/min
- CL/F ([3]; po, 20 mg/kg, single oral 20 mg/kg PZQ alone, n = 9, read-out: Clearance/F, reference mean (SD) (converted)): 5670 mL/min
- k el ([3]; po, 20 mg/kg, single oral 20 mg/kg PZQ alone, n = 9, read-out: Elimination rate constant, reference geo mean (converted)): 8.33e-05 s⁻¹
- k el ([3]; po, 20 mg/kg, single oral 20 mg/kg PZQ alone, n = 9, read-out: Elimination rate constant, reference mean (SD) (converted)): 0.0001 s⁻¹
- half-life ([3]; po, 20 mg/kg, single oral 20 mg/kg PZQ alone, n = 9, read-out: Half life, reference geo mean (converted)): 138 min
- half-life ([3]; po, 20 mg/kg, single oral 20 mg/kg PZQ alone, n = 9, read-out: Half life, reference mean (SD) (converted)): 166 min
- Tmax ([3]; po, 20 mg/kg, single oral 20 mg/kg PZQ alone, n = 9, read-out: T max, reference geo mean): 2.96 h
- Tmax ([3]; po, 20 mg/kg, single oral 20 mg/kg PZQ alone, n = 9, read-out: T max, reference mean (SD)): 3 h
- Vd/F ([3]; po, 20 mg/kg, single oral 20 mg/kg PZQ alone, n = 9, read-out: V d/F, reference geo mean): 1090 L
- Vd/F ([3]; po, 20 mg/kg, single oral 20 mg/kg PZQ alone, n = 9, read-out: V d/F, reference mean (SD)): 1200 L
- Clearance/F, reference mean (SD) ([3]; single oral 20 mg/kg PZQ alone, n = 9, 20 mg/kg): 340 ± 97 L/h
- C max, reference mean (SD) [3, 12]: 782.9 (171.7) ng/mL
- Clearance/F, reference mean (SD) [3, 12]: 340.1 (96.37) L/h
- CLuH,int [4]: 2.44 mL/min/kg and 2.440 mL/min/kg
- Contribution of CYP3A4/5 [5]: 131%
- Predicted CLH [6]: 5.600 mL/min/kg
- Predicted CLuH,int [6]: 30.71 mL/min/kg
- Predicted total CLH (Simcyp) ([7]; metabolite formation assay): 10.144 mL/min/kg
- Predicted total CLH (Simcyp) ([7]; substrate depletion assay): 6.265 mL/min/kg
- Contribution of CYP2C19 [8]: 117%
- Contribution of CYP1A2 [9]: 27%
